Data reported in US20230263822A1, “MODULATION OF FACTOR 11 EXPRESSION” (Ionis Pharmaceuticals, Inc., priority 2008, published 2023).
Strand notation (5' to 3'): a small letter for the sugar, then the base; units joined by * are phosphorothioate-linked, units joined directly phosphodiester-linked; [ ] holds rarer units or linkages, { } end groups; capitals alone tell only the bases. e = 2'-O-(2-methoxyethyl) (MOE); [5mC] = 5-methylcytosine; d = 2'-deoxy (DNA)

Legend:
[1] = Tolerability in CD1 mice: hematology assays (Example 41); details: 50 mg/kg s.c. twice per week for 6 weeks, blood
[2] = Kidney function, urine protein to creatinine ratio in cynomolgus monkeys (Example 45); format: in vivo
Description: (§1) Groups, each consisting of two male and three female monkeys, were injected subcutaneously with ISIS 416838, ISIS 416850, ISIS 416858, ISIS 416864, or ISIS 417002 in escalating doses. Antisense oligonucleotide was administered to the monkeys at 5 mg/kg three times per a week for week 1; 5 mg/kg twice per week for weeks 2 and 3; 10 mg/kg three times per week for week 4; 10 mg/kg twice per week for weeks 5 and 6; 25 mg/kg three times per week for week 7; and 25 mg/kg twice per week for weeks 8, 9, 10, 11, and 12. One control group, consisting of two male and three female monkeys, was injected subcutaneously with PBS according to the same dosing regimen. An additional experimental group, consisting of two male and three female monkeys, was injected subcutaneously with ISIS 416850 in a chronic, lower dose regimen. Antisense oligonucleotide was administered to the monkeys at 5 mg/kg three times per week for week 1; 5 mg/kg twice per week for week 2 and 3; 10 mg/kg three times per week for week 4; and 10 mg/kg twice per week for weeks 5 to 12. Body weights were measured weekly. Blood samples were collected 14 days and 5 days before the start of treatment and subsequently once per week for Factor 11 protein activity analysis in plasma, fibrinogen measurement, PT and aPTT measurements, bleeding times, and measurement of various hematologic factors. On day 85, the monkeys were euthanized by exsanguination while under deep anesthesia, and organs harvested for further analysis.
To evaluate the impact of ISIS oligonucleotides on kidney function, urine samples were collected.

[3] = Tolerability in CD1 mice: kidney function, BUN (Example 41); details: 50 mg/kg s.c. twice per week for 6 weeks, plasma
[4] = Liver function, ALT, AST, bilirubin in cynomolgus monkeys (Example 45); format: in vivo; details: plasma
Description: as §1
The ISIS oligonucleotide, ISIS 416850, given with the chronic dose regimen is distinguished from the other oligonucleotides with an asterisk (*).

Factor 11 activity = assay: Factor 11 protein activity, F11 assay based on clotting time (Example 45); format: in vivo, cynomolgus monkeys
Description: as §1
Blood samples were collected at various time points and Factor 11 proenzyme was measured using a F11 assay based on clotting time. Clotting times were determined in duplicate with a ST4 semi-automated coagulation instrument (Diagnostica Stago, NJ). Thirty μl of citrated sample plasma diluted 1/20 in HEPES-NaCl buffer with BSA was incubated with 30 μl aPTT reagent (Automated aPTT, Organon Technika, NC) and 30 μl of citrated plasma deficient of Factor 11 (George King Bio-Medical Inc.) at 37° C. for 5 min, followed by the addition of 30 μl of 25 mM CaCl2) to initiate clotting. Results were interpolated on a standard curve of serially diluted citrated control plasma.
Results are presented in Table 118 as percent inhibition of Factor 11 activity, relative to PBS control. The ISIS oligonucleotide, ISIS 416850, given with the chronic dose regimen is distinguished from the other oligonucleotides with an asterisk (*).

[5] = Tolerability in Sprague-Dawley rats: hematology assays (Example 42); details: 50 mg/kg s.c. twice per week for 6 weeks, blood
[6] = day 22, chronic dose regimen (*)
[7] = day 22, escalating dose regimen
[8] = day 43, chronic dose regimen (*)
[9] = day 43, escalating dose regimen
[10] = day 64, escalating dose regimen
[11] = day 85, escalating dose regimen
[12] = day −14, chronic dose regimen (*)
[13] = day −14, escalating dose regimen

For “ISIS 416850: MOE gapmer, nucleobases 1275 to 1318 of SEQ ID NO: 1 (Table 8) (antisense TGCACAGTTTCTGGCAGGCC; MOE gapmer, wing and gap sizes not given here)”, the HCT [1] was 50%, the Lymphocyte [1] was 4710 and the Neutrophil [1] was 1314. The Platelets [1] was 614, the RBC [1] was 9.8 and the WBC [1] was 6. For the same substance, the hemoglobin [1] was 14.8 g/dL, the “urine protein to creatinine ratio” value ([2]; Day 80) was 0.09 and the “urine protein to creatinine ratio” value ([2]; Day 84) was 0.12. For the same substance, the BUN [3] was 28 mg/dL, the ALT [4, 6] was 42 IU/L and the AST [4, 6] was 39 IU/L. The Bilirubin [4, 6] was 0.19 mg/dL, the ALT [4, 7] was 41 IU/L and the AST [4, 7] was 45 IU/L. The Bilirubin [4, 7] was 0.13 mg/dL, the ALT [4, 8] was 41 IU/L and the AST [4, 8] was 40 IU/L. For the same substance, the Bilirubin [4, 8] was 0.18 mg/dL, the ALT [4, 9] was 43 IU/L and the AST [4, 9] was 50 IU/L. The Bilirubin [4, 9] was 0.13 mg/dL, the ALT [4, 10] was 60 IU/L and the AST [4, 10] was 56 IU/L. It also gave a Bilirubin [4, 10] of 0.14 mg/dL, an ALT [4, 11] of 75 IU/L and an AST [4, 11] of 82. IU/L. For the same substance, the Bilirubin [4, 11] was 0.14 mg/dL, the ALT [4, 12] was 80 IU/L and the AST [4, 12] was 100 IU/L. It also gave a Bilirubin [4, 12] of 0.28 mg/dL, an ALT [4, 13] of 54 IU/L and an AST [4, 13] of 81 IU/L. For the same substance, the Bilirubin [4, 13] was 0.21 mg/dL, the “percent inhibition of Factor 11 activity, relative to PBS control” value (shortened to “percent inhibition … relative to PBS control”) (Factor 11 activity; day 8, chronic dose regimen (*)) was 6% and the “percent inhibition … relative to PBS control” value (Factor 11 activity; day 8, escalating dose regimen) was 8%. The “percent inhibition … relative to PBS control” value (Factor 11 activity; day 15, chronic dose regimen (*)) was 13%, the “percent inhibition … relative to PBS control” value (Factor 11 activity; day 15, escalating dose regimen) was 4% and the “percent inhibition … relative to PBS control” value (Factor 11 activity; [6]) was 12%. The “percent inhibition … relative to PBS control” value (Factor 11 activity; [7]) was 11%, the “percent inhibition … relative to PBS control” value (Factor 11 activity; day 29, chronic dose regimen (*)) was 20% and the “percent inhibition … relative to PBS control” value (Factor 11 activity; day 29, escalating dose regimen) was 15%. The “percent inhibition … relative to PBS control” value (Factor 11 activity; day 36, chronic dose regimen (*)) was 24%, the “percent inhibition … relative to PBS control” value (Factor 11 activity; day 36, escalating dose regimen) was 17% and the “percent inhibition … relative to PBS control” value (Factor 11 activity; [8]) was 24%. For the same substance, the “percent inhibition … relative to PBS control” value (Factor 11 activity; [9]) was 23%, the “percent inhibition … relative to PBS control” value (Factor 11 activity; day 50, chronic dose regimen (*)) was 30% and the “percent inhibition … relative to PBS control” value (Factor 11 activity; day 50, escalating dose regimen) was 42%. For the same substance, the “percent inhibition … relative to PBS control” value (Factor 11 activity; day 57, escalating dose regimen) was 49%, the “percent inhibition … relative to PBS control” value (Factor 11 activity; [10]) was 55% and the “percent inhibition … relative to PBS control” value (Factor 11 activity; day 71, escalating dose regimen) was 57%. For the same substance, the “percent inhibition … relative to PBS control” value (Factor 11 activity; day 78, escalating dose regimen) was 63%, the “percent inhibition … relative to PBS control” value (Factor 11 activity; [11]) was 64% and the “percent inhibition … relative to PBS control” value (Factor 11 activity; day −5, chronic dose regimen (*)) was 1%. The “percent inhibition … relative to PBS control” value (Factor 11 activity; day −5, escalating dose regimen) was 0%, the “percent inhibition … relative to PBS control” value (Factor 11 activity; [12]) was 0% and the “percent inhibition … relative to PBS control” value (Factor 11 activity; [13]) was 0%.
In the case of “ISIS 445531: 5-8-5 or 6-8-6 MOE microwalk gapmer (Table 44) (antisense eG*eG*e[5mC]*eA*eT*dT*dG*dG*dT*dG*d[5mC]*dA*d[5mC]*eA*eG*eT*eT*eT)”, the HCT [1] is reported as 48%, the Lymphocyte [1] is reported as 6125 and the Neutrophil [1] is reported as 2341. For the same substance, the Platelets [1] was 996, the RBC [1] was 9.4 and the WBC [1] was 9. It also gave a hemoglobin [1] of 14.5 g/dL, an HCT [5] of 50% and a Lymphocyte [5] of 86%. It also gave a Neutrophil [5] of 10%, a Platelets [5] of 1023 nL⁻¹ and an RBC [5] of 8.8 pL⁻¹. For the same substance, the WBC [5] was 13 nL⁻¹, the hemoglobin [5] was 14.8 g/dL and the monocytes [5] was 2.8%. The BUN [3] was 27 mg/dL.
